# Measured values from paper PMC3913711, “A Novel Angiotensin I-Converting Enzyme Mutation (S333W) Impairs N-Domain Enzymatic Cleavage of the Anti-Fibrotic Peptide, AcSDKP” (PLoS ONE, 2014).
# Residues, ends and D or L forms follow the SMILES beside them. *: point of attachment. Bz = O=C(c1ccccc1)*
# Legend:
# [1] = biological target: T1, Angiotensin I-converting enzyme (ACE, CD143) (Homo sapiens, UniProt P12821, S362W); assay: fluorimetric hydrolysis assay (His-Leu product), […] substrate; assay type: cell-based
# T1 construct: full-length somatic ACE, CHO cell lysate
# [2] = biological target: T2, Angiotensin I-converting enzyme (ACE, CD143) (Homo sapiens, UniProt P12821); assay: as above; assay type: cell-based
# T2 construct: full-length somatic ACE, CHO cell lysate
# T2 sequence (P12821 30-1306): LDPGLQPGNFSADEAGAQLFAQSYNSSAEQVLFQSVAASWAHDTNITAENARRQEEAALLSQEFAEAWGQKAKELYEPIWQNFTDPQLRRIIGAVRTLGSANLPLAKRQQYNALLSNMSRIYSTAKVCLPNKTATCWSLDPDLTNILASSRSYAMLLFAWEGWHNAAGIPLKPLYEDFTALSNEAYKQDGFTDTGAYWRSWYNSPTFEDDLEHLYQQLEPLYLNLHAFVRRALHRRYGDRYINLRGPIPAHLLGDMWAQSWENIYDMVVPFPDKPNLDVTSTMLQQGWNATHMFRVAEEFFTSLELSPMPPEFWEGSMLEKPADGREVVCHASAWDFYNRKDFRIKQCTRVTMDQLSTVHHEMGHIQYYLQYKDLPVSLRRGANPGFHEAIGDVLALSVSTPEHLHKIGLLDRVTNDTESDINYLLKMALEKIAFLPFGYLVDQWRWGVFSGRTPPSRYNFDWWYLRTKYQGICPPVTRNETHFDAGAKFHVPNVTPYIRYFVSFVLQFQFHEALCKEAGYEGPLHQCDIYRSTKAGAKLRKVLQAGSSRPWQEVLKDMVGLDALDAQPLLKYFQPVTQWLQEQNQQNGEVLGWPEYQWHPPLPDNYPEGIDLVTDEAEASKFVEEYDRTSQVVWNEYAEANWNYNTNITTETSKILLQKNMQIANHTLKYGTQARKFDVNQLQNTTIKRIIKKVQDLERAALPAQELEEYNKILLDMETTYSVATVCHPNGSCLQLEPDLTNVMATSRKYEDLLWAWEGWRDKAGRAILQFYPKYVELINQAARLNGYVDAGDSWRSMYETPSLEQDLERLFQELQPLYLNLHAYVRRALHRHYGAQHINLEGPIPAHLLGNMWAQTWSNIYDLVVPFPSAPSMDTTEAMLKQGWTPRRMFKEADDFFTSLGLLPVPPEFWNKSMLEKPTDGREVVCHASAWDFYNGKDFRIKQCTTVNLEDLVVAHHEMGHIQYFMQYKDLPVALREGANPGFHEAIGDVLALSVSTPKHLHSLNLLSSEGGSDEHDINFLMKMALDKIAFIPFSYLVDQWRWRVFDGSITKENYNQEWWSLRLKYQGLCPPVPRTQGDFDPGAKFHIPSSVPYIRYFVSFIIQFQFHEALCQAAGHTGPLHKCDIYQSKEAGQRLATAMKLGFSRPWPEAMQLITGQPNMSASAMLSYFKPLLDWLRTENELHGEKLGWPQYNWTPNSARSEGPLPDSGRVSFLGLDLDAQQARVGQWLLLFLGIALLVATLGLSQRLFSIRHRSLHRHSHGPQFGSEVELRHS
# T1 sequence (P12821 30-1306 S362W): as the sequence (P12821 30-1306) above, with S333W counted along it
structure (smiles),measurement,setting,value
CC(C)C[C@H](NC(=O)[C@H](Cc1cnc[nH]1)NC(=O)CNC(=O)c1ccccc1)C(=O)O [Hip-His-Leu] (Bz-Gly-His-Leu-OH),"fluorimetric hydrolysis assay (His-Leu product), 5 mM substrate",[1],stably expressing WT and mutant ACE was determined with substrates Hip-His-Leu and Z-Phe-His –Leu
same,"fluorimetric hydrolysis assay (His-Leu product), 5 mM substrate",[2],stably expressing WT and mutant ACE was determined with substrates Hip-His-Leu and Z-Phe-His –Leu
